Each molecule was assayed on barnyardgrass (assay: Test Example 1: foliage treatment, upland pot test). Settings: active ingredient 500 g/ha, observed 18th to 23rd day, 0 = non-treated, 100 = complete kill.
Format: in vivo, Echinochloa crus-galli L.
In short: (§1)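 Upland pot test, foliar. Soybean 0.1–0.4 / wheat 1.3–2.4 / rice 1.2–2.6 / barnyardgrass 1.3–2.8 leaf stage at spraying; 500 L/ha carrier, 0.1% (v/v) spreader. Visual % control, 0 untreated to 100 dead, days 18–23.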

Structure (SMILES)	Growth controlling degree (%) Barnyardgrass
CC(C)C(c1cnccc1C(F)(F)F)N(C)C(=O)Cc1ccc(OC(F)F)cc1 (racemic) [I-128]	70%
CC(C)C(c1cnccc1C(F)(F)F)N(C)S(=O)(=O)c1ccc(Cl)cc1 (racemic) [I-125]	70%

Each molecule was assayed on crabgrass (assay: Test Example 1: foliage treatment, upland pot test). Settings: active ingredient 500 g/ha, observed 18th to 23rd day, 0 = non-treated, 100 = complete kill.
Format: in vivo, Digitaria sanguinalis L.

Structure (SMILES)	Growth controlling degree (%) Crabgrass
CC(C)C(c1cnccc1C(F)(F)F)N(C)C(=O)Cc1ccc(OC(F)F)cc1 (racemic) [I-128]	95%
CC(C)C(c1cnccc1C(F)(F)F)N(C)S(=O)(=O)c1ccc(Cl)cc1 (racemic) [I-125]	95%

The molecules below were run on green foxtail (assay: Test Example 1: foliage treatment, upland pot test). Settings: active ingredient 500 g/ha, observed 18th to 23rd day, 0 = non-treated, 100 = complete kill.
Format: in vivo, Setaria viridis L.

Structure (SMILES)	Growth controlling degree (%) Green foxtail
CC(C)C(c1cnccc1C(F)(F)F)N(C)C(=O)Cc1ccc(OC(F)F)cc1 (racemic) [I-128]	50%
CC(C)C(c1cnccc1C(F)(F)F)N(C)S(=O)(=O)c1ccc(Cl)cc1 (racemic) [I-125]	70%

These molecules were tested on redroot pigweed (assay: Test Example 1: foliage treatment, upland pot test). Settings: active ingredient 500 g/ha, observed 18th to 23rd day, 0 = non-treated, 100 = complete kill.
Format: in vivo, Amaranthus retroflexus L.

Structure (SMILES)	Growth controlling degree (%) Redroot pigweed
CC(C)C(c1cnccc1C(F)(F)F)N(C)C(=O)Cc1ccc(OC(F)F)cc1 (racemic) [I-128]	60%
CC(C)C(c1cnccc1C(F)(F)F)N(C)S(=O)(=O)c1ccc(Cl)cc1 (racemic) [I-125]	60%

These molecules were tested on prickly sida (assay: Test Example 1: foliage treatment, upland pot test). Settings: active ingredient 500 g/ha, observed 18th to 23rd day, 0 = non-treated, 100 = complete kill.
Format: in vivo, Sida spinosa L.

Structure (SMILES)	Growth controlling degree (%) Prickly sida
CC(C)C(c1cnccc1C(F)(F)F)N(C)C(=O)Cc1ccc(OC(F)F)cc1 (racemic) [I-128]	80%
CC(C)C(c1cnccc1C(F)(F)F)N(C)S(=O)(=O)c1ccc(Cl)cc1 (racemic) [I-125]	80%

Each molecule was assayed on velvetleaf (assay: Test Example 1: foliage treatment, upland pot test). Settings: active ingredient 500 g/ha, observed 18th to 23rd day, 0 = non-treated, 100 = complete kill.
Format: in vivo, Abutilon theophrasti MEDIC.

Structure (SMILES)	Growth controlling degree (%) Velvetleaf
CC(C)C(c1cnccc1C(F)(F)F)N(C)C(=O)Cc1ccc(OC(F)F)cc1 (racemic) [I-128]	80%
CC(C)C(c1cnccc1C(F)(F)F)N(C)S(=O)(=O)c1ccc(Cl)cc1 (racemic) [I-125]	70%

The molecules below were run on rice (assay: Test Example 1: foliage treatment, upland pot test). Settings: crop, active ingredient 500 g/ha, observed 18th to 23rd day, 0 = non-treated, 100 = complete kill.
Format: in vivo, Oryza sativa L.
In short: as §1

Structure (SMILES)	Growth controlling degree (%) Rice
CC(C)C(c1cnccc1C(F)(F)F)N(C)C(=O)Cc1ccc(OC(F)F)cc1 (racemic) [I-128]	50%
CC(C)C(c1cnccc1C(F)(F)F)N(C)S(=O)(=O)c1ccc(Cl)cc1 (racemic) [I-125]	40%

Each molecule was assayed on wheat (assay: Test Example 1: foliage treatment, upland pot test). Settings: crop, active ingredient 500 g/ha, observed 18th to 23rd day, 0 = non-treated, 100 = complete kill.
Format: in vivo, Triticum spp.
Text: Upland field soil was put into a 1/170,000 ha pot, and seed of various plants were sown. Then, when the plants reached predetermined leaf stages ((1) barnyardgrass: 1.3 to 2.8 leaf stages, (2) crabgrass: 1.0 to 2.8 leaf stages, (3) green foxtail: 1.3 to 2.6 leaf stages, (4) redroot pigweed: 0.1 to 1.2 leaf stages, (5) prickly sida: 0.1 to 1.2 leaf stages, (6) velvetleaf: 0.1 to 1.2 leaf stages, (7) tall morningglory: 0.1 to 1.5 leaf stages, (8) rice: 1.2 to 2.6 leaf stages, (9) wheat: 1.3 to 2.4 leaf stages, (10) corn, 2.1 to 3.2 leaf stages, (11) soybean: 0.1 to 0.4 leaf stage), a wettable powder or emulsifiable concentrate having the compound of the present invention formulated in accordance with a usual formulation method, was weighed so that the active ingredient would be a predetermined amount, and diluted with water in an amount of 500 L/ha. To the diluted solution, 0.1% (v/v) of agricultural spreader was added. The herbicide thus adjusted was applied by a small size sprayer for foliage treatment. On the 18th to 23rd days after the application of the herbicide, the growth of the respective plants was visually observed, and the herbicidal effects were evaluated by the growth controlling degrees (%) ranging from 0 (equivalent to the non-treated plot) to 100 (complete kill), whereby the results shown in Table 3, were obtained.

Structure (SMILES)	Growth controlling degree (%) wheat
CC(C)C(c1cnccc1C(F)(F)F)N(C)C(=O)Cc1ccc(OC(F)F)cc1 (racemic) [I-128]	30%
CC(C)C(c1cnccc1C(F)(F)F)N(C)S(=O)(=O)c1ccc(Cl)cc1 (racemic) [I-125]	10%

These molecules were tested on corn (assay: Test Example 1: foliage treatment, upland pot test). Settings: crop, active ingredient 500 g/ha, observed 18th to 23rd day, 0 = non-treated, 100 = complete kill.
Format: in vivo, Zea mays L.
In short: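 In this upland pot foliage test, corn plants at 2.1 to 3.2 leaf stages were sprayed by a small size sprayer. The spray was a conventionally formulated wettable powder or emulsifiable concentrate weighed to a set active ingredient amount, diluted in water at 500 L/ha, plus 0.1% (v/v) agricultural spreader. Visual assessment on days 18 to 23 gave growth controlling degree (%), where 0 equals untreated and 100 means complete kill.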

Structure (SMILES)	Growth controlling degree (%) Corn
CC(C)C(c1cnccc1C(F)(F)F)N(C)C(=O)Cc1ccc(OC(F)F)cc1 (racemic) [I-128]	70%
CC(C)C(c1cnccc1C(F)(F)F)N(C)S(=O)(=O)c1ccc(Cl)cc1 (racemic) [I-125]	60%

What follows are molecules tested on soybean (assay: Test Example 1: foliage treatment, upland pot test). Settings: crop, active ingredient 500 g/ha, observed 18th to 23rd day, 0 = non-treated, 100 = complete kill.
Format: in vivo, Glycine max Merr.
In short: as §1

Structure (SMILES)	Growth controlling degree (%) Soybean
CC(C)C(c1cnccc1C(F)(F)F)N(C)C(=O)Cc1ccc(OC(F)F)cc1 (racemic) [I-128]	80%
CC(C)C(c1cnccc1C(F)(F)F)N(C)S(=O)(=O)c1ccc(Cl)cc1 (racemic) [I-125]	80%

The molecules below were run on barnyardgrass (assay: Test Example 2: soil surface treatment, upland pot test). Settings: active ingredient 500 g/ha, observed 20th to 28th day.
Format: in vivo, Echinochloa crus-galli L.
In short: (§2)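 A pre-emergence soil application: formulated compound at a predetermined active-ingredient dose, diluted in water to 1,500 L/ha, sprayed on upland soil a day after seeding in 1/170,000 ha pots; growth control rated visually, 0 (untreated level) to 100 (kill), at 20–28 days.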

Structure (SMILES)	Growth controlling degree (%) Barnyardgrass
CC(C)C(c1cnccc1C(F)(F)F)N(C)C(=O)Cc1ccc(OC(F)F)cc1 (racemic) [I-128]	100%
CC(C)C(c1cnccc1C(F)(F)F)N(C)S(=O)(=O)c1ccc(Cl)cc1 (racemic) [I-125]	100%

These molecules were tested on crabgrass in the same assay as above. Settings: active ingredient 500 g/ha, observed 20th to 28th day.
Format: in vivo, Digitaria sanguinalis L.
In short: as §2

Structure (SMILES)	Growth controlling degree (%) Crabgrass
CC(C)C(c1cnccc1C(F)(F)F)N(C)C(=O)Cc1ccc(OC(F)F)cc1 (racemic) [I-128]	100%
CC(C)C(c1cnccc1C(F)(F)F)N(C)S(=O)(=O)c1ccc(Cl)cc1 (racemic) [I-125]	100%

These molecules were tested on green foxtail in the same assay as above. Settings: active ingredient 500 g/ha, observed 20th to 28th day.
Format: in vivo, Setaria viridis L.
In short: as §2

Structure (SMILES)	Growth controlling degree (%) Green foxtail
CC(C)C(c1cnccc1C(F)(F)F)N(C)C(=O)Cc1ccc(OC(F)F)cc1 (racemic) [I-128]	100%
CC(C)C(c1cnccc1C(F)(F)F)N(C)S(=O)(=O)c1ccc(Cl)cc1 (racemic) [I-125]	100%

The molecules below were run on redroot pigweed in the same assay as above. Settings: active ingredient 500 g/ha, observed 20th to 28th day.
Format: in vivo, Amaranthus retroflexus L.
In short: as §2

Structure (SMILES)	Growth controlling degree (%) Redroot pigweed
CC(C)C(c1cnccc1C(F)(F)F)N(C)C(=O)Cc1ccc(OC(F)F)cc1 (racemic) [I-128]	30%
CC(C)C(c1cnccc1C(F)(F)F)N(C)S(=O)(=O)c1ccc(Cl)cc1 (racemic) [I-125]	50%

Each molecule was assayed on prickly sida in the same assay as above. Settings: active ingredient 500 g/ha, observed 20th to 28th day.
Format: in vivo, Sida spinosa L.
In short: as §2

Structure (SMILES)	Growth controlling degree (%) Prickly sida
CC(C)C(c1cnccc1C(F)(F)F)N(C)C(=O)Cc1ccc(OC(F)F)cc1 (racemic) [I-128]	80%
CC(C)C(c1cnccc1C(F)(F)F)N(C)S(=O)(=O)c1ccc(Cl)cc1 (racemic) [I-125]	80%

The molecules below were run on velvetleaf in the same assay as above. Settings: active ingredient 500 g/ha, observed 20th to 28th day.
Format: in vivo, Abutilon theophrasti MEDIC.
In short: as §2

Structure (SMILES)	Growth controlling degree (%) Velvetleaf
CC(C)C(c1cnccc1C(F)(F)F)N(C)C(=O)Cc1ccc(OC(F)F)cc1 (racemic) [I-128]	60%
CC(C)C(c1cnccc1C(F)(F)F)N(C)S(=O)(=O)c1ccc(Cl)cc1 (racemic) [I-125]	70%

The molecules below were run on rice in the same assay as above. Settings: active ingredient 500 g/ha, observed 20th to 28th day.
Format: in vivo, Oryza sativa L.
In short: as §2

Structure (SMILES)	Growth controlling degree (%) Rice
CC(C)C(c1cnccc1C(F)(F)F)N(C)C(=O)Cc1ccc(OC(F)F)cc1 (racemic) [I-128]	40%
CC(C)C(c1cnccc1C(F)(F)F)N(C)S(=O)(=O)c1ccc(Cl)cc1 (racemic) [I-125]	30%

The molecules below were run on wheat in the same assay as above. Settings: active ingredient 500 g/ha, observed 20th to 28th day.
Format: in vivo, Triticum spp.
In short: as §2

Structure (SMILES)	Growth controlling degree (%) wheat
CC(C)C(c1cnccc1C(F)(F)F)N(C)C(=O)Cc1ccc(OC(F)F)cc1 (racemic) [I-128]	30%
CC(C)C(c1cnccc1C(F)(F)F)N(C)S(=O)(=O)c1ccc(Cl)cc1 (racemic) [I-125]	20%

Each molecule was assayed on corn in the same assay as above. Settings: active ingredient 500 g/ha, observed 20th to 28th day.
Format: in vivo, Zea mays L.
In short: as §2

Structure (SMILES)	Growth controlling degree (%) Corn
CC(C)C(c1cnccc1C(F)(F)F)N(C)C(=O)Cc1ccc(OC(F)F)cc1 (racemic) [I-128]	50%
CC(C)C(c1cnccc1C(F)(F)F)N(C)S(=O)(=O)c1ccc(Cl)cc1 (racemic) [I-125]	10%

What follows are molecules tested on soybean in the same assay as above. Settings: active ingredient 500 g/ha, observed 20th to 28th day.
Format: in vivo, Glycine max Merr.
In short: as §2

Structure (SMILES)	Growth controlling degree (%) Soyabean
CC(C)C(c1cnccc1C(F)(F)F)N(C)C(=O)Cc1ccc(OC(F)F)cc1 (racemic) [I-128]	20%
CC(C)C(c1cnccc1C(F)(F)F)N(C)S(=O)(=O)c1ccc(Cl)cc1 (racemic) [I-125]	10%

These molecules were tested on barnyardgrass (assay: Test Example 3: paddy pot test, application under submerged conditions). Settings: active ingredient 250 g/ha; submerged application at 0.5 leaf stage; visually observed 14 days after application; 0 = non-treated, 100 = complete kill.
Format: in vivo, Echinochloa crus-galli L.
In short: (§3)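 Visual growth-control rating (0 = untreated, 100 = complete kill) 14 days after treatment. The formulated compound, as a diluted wettable powder or emulsifiable concentrate, went into 3–4 cm flood water at a predetermined active-ingredient dose once the weeds reached 0.5 leaf stage (wapato: primary leaf stage).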

Structure (SMILES)	Growth controlling degree (%) Barnyardgrass
CC(C)C(c1cnccc1C(F)(F)F)N(C)C(=O)Cc1ccc(OC(F)F)cc1 (racemic) [I-128]	100%
CC(C)C(c1cnccc1C(F)(F)F)N(C)S(=O)(=O)c1ccc(Cl)cc1 (racemic) [I-125]	100%

Each molecule was assayed on japanese bulrush in the same assay as above. Settings: active ingredient 250 g/ha; submerged application at 0.5 leaf stage; visually observed 14 days after application; 0 = non-treated, 100 = complete kill.
Format: in vivo, Scirpus juncoides
In short: as §3

Structure (SMILES)	Growth controlling degree (%) Japanese bulrush
CC(C)C(c1cnccc1C(F)(F)F)N(C)C(=O)Cc1ccc(OC(F)F)cc1 (racemic) [I-128]	90%
CC(C)C(c1cnccc1C(F)(F)F)N(C)S(=O)(=O)c1ccc(Cl)cc1 (racemic) [I-125]	70%

Each molecule was assayed on rice (var. Nihonbare) (assay: Test Example 3: paddy pot test, transplanted rice). Settings: active ingredient 250 g/ha, applied 4th day after transplantation, visually observed 21st day after application, 0 = non-treated, 100 = complete kill.
Format: in vivo, Oryza sativa L.
In short: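 Rice (var. Nihonbare) at 2 leaf stage transplanted 3 cm deep into puddled paddy soil under 3–4 cm flooding; on day 4 after transplanting, diluted wettable powder or emulsifiable concentrate applied by pipette under submerged conditions at a set active-ingredient dose. Growth scored visually 21 days after application, 0 (untreated) to 100 (complete kill) %.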

Structure (SMILES)	Growth controlling degree (%) Rice
CC(C)C(c1cnccc1C(F)(F)F)N(C)C(=O)Cc1ccc(OC(F)F)cc1 (racemic) [I-128]	0%
CC(C)C(c1cnccc1C(F)(F)F)N(C)S(=O)(=O)c1ccc(Cl)cc1 (racemic) [I-125]	10%

From patent publication US20050239656A1, “Pyridine compounds or salts thereof and herbicides containing the same” (priority 2002, published 2005)
